# Structures can show the parent of a compound that is named as a salt.
# System: postmenopausal women with frequent, moderate to severe vasomotor symptoms (hot flashes)
# Experiment: Phase 2a study: hot flash frequency, severity and composite score
# Format: in vivo, human (postmenopausal women)
# Details: for Composite Scores by Week: mean; for Mean Severity Scores by Week / Weekly Mean Frequency of Mild, Moderate and Severe Hot Flash Numbers / Weekly Mean Frequency of Moderate and Severe Hot Flash Numbers: mean (SD)
# From the text: A phase 2a study was undertaken to assess the effect of (R)-6-(2-(ethyl(4-(2-(ethylamino)ethyl)benzyl)amino)-4-methoxyphenyl)-5,6,7,8-tetrahydronaphthalen-2-ol dihydrochloride (referred to as “drug” in tables below) to alleviate hot flashes in postmenopausal women. The study design and objectives are detailed below.
# This is a randomized, placebo-controlled, double-blind, parallel-group, Phase 2, multi-center, dose-finding study to evaluate the effects of (R)-6-(2-(ethyl(4-(2-(ethylamino)ethyl)benzyl)amino)-4-methoxyphenyl)-5,6,7,8-tetrahydronaphthalen-2-ol dihydrochloride in the treatment of vasomotor symptoms in postmenopausal women.
# A total of 100 eligible patients will be randomized to receive one of 5 blinded treatment regimens. (R)-6-(2-(ethyl(4-(2-(ethylamino)ethyl)benzyl)amino)-4-methoxyphenyl)-5,6,7,8-tetrahydronaphthalen-2-ol dihydrochloride at doses 0, 10, 25, 50 or 100 mg will be dosed for 28-days.
# Patients will document in real time hot flash frequency and severity according to a predetermined scale, in the provided electronic or paper Study Diary. Study Diary entries of hot flash frequency and severity and associated symptoms will be reviewed at each study visit. Serum markers of estrogen effect will be measured at specific study visits while on treatment.
# The efficacy endpoints assessed are: • Change in frequency of hot flashes over time • Change in severity of hot flashes over time; • Change in composite score of hot flashes over time (frequency×severity)
# (R)-6-(2-(ethyl(4-(2-(ethylamino)ethyl)benzyl)amino)-4-methoxyphenyl)-5,6,7,8-tetrahydronaphthalen-2-ol dihydrochloride was provided by sponsor in capsule form for oral administration. All doses (0, 10, 25, 50 and 100 mg) were provided as identical presentations. Each patient was provided with 2 containers of 28-capsules each at the start of treatment and took one capsule from each container every day for 28-days. Placebo contained the same excipients as active medication, but without (R)-6-(2-(ethyl(4-(2-(ethylamino)ethyl)benzyl)amino)-4-methoxyphenyl)-5,6,7,8-tetrahydronaphthalen-2-ol dihydrochloride. The patients were instructed to take the capsules orally in the fasted state (morning).
# Changes in the efficacy endpoints of frequency, severity, and composite score of hot flashes over time; associated hot flash symptoms (palpitations, insomnia, joint aches, and headaches), PD markers of estrogen effect (FSH, LH, and lipid profile), drug levels, and MRS were to be summarized using descriptive statistics. Frequency, severity, and composite score of hot flashes over time were to be analyzed using repeated measures analysis of variance (ANOVA) with factors for treatment (treatment groups), time (study day) and their interaction. A linear trend test for treatment groups (placebo, and 10, 25, 50, 100 mg doses of drug) and for study day as well as any potential interaction between the two was to be included as part of the analyses by including both dose and time as continuous variables in the ANOVA model. Pair-wise comparisons of change from baseline were to be tested between the placebo group and each drug dose group for each timepoint; the mean difference together with a 95% confidence interval of the difference was to be presented for placebo compared with each active treatment group. Nominal p-values at Week 4 were to be presented. In addition, graphical presentations of mean (±standard error of the mean) and percent group responses over time together with repeated measures ANOVA to assess potential trend in responses over time in each dose group were to be presented. For the associated vasomotor symptoms (palpitations, insomnia, joint aches, and headaches collected in the patient diaries), patient and event frequencies were to be summarized by treatment week and treatment group.
# Hot flashes were also scored according to their severity with a mild hot flash scored a “1”, a moderate hot flash scored a “2” and a severe hot flash scored a “3”. […]
smiles,measurement,setting,value
"CCNCCc1ccc(CN(CC)c2cc(OC)ccc2[C@@H]2CCc3cc(O)ccc3C2)cc1 [drug, (R)-6-(2-(ethyl(4-(2-(ethylamino)ethyl)benzyl)amino)-4-methoxyphenyl)-5,6,7,8-tetrahydronaphthalen-2-ol dihydrochloride]",Composite Scores by Week,"10 mg daily PO, Week 1, ITT",73.68
same,Mean Severity Scores by Week,"10 mg daily PO, Week 1, ITT",1.99 (0.460)
same,"Weekly Mean Frequency of Mild, Moderate and Severe Hot Flash Numbers","10 mg daily PO, Week 1, ITT",36.0 (18.97)
same,Weekly Mean Frequency of Moderate and Severe Hot Flash Numbers,"10 mg daily PO, Week 1, ITT",30.4 (18.92)
same,Composite Scores by Week,"10 mg daily PO, Week 2, ITT",47.75
same,Mean Severity Scores by Week,"10 mg daily PO, Week 2, ITT",1.80 (0.514)
same,"Weekly Mean Frequency of Mild, Moderate and Severe Hot Flash Numbers","10 mg daily PO, Week 2, ITT",27.2 (15.16)
same,Weekly Mean Frequency of Moderate and Severe Hot Flash Numbers,"10 mg daily PO, Week 2, ITT",18.5 (13.34)
same,Composite Scores by Week,"10 mg daily PO, Week 3, ITT",37.15
same,Mean Severity Scores by Week,"10 mg daily PO, Week 3, ITT",1.84 (0.570)
same,"Weekly Mean Frequency of Mild, Moderate and Severe Hot Flash Numbers","10 mg daily PO, Week 3, ITT",21.2 (12.99)
same,Weekly Mean Frequency of Moderate and Severe Hot Flash Numbers,"10 mg daily PO, Week 3, ITT",14.5 (11.92)
same,Composite Scores by Week,"10 mg daily PO, Week 4, ITT",34.35
same,Mean Severity Scores by Week,"10 mg daily PO, Week 4, ITT",1.86 (0.562)
same,"Weekly Mean Frequency of Mild, Moderate and Severe Hot Flash Numbers","10 mg daily PO, Week 4, ITT",19.1 (12.95)
same,Weekly Mean Frequency of Moderate and Severe Hot Flash Numbers,"10 mg daily PO, Week 4, ITT",13.4 (11.54)
same,reduction in severity of hot flashes compared with other groups,"10 mg dose vs placebo and 25, 50, 100 mg, Table 8 / FIG. 3",greatest reduction in severity of hot flashes at all time points
same,reduction in moderate and severe hot flashes compared with other groups,"10 mg group vs placebo and 25, 50, 100 mg, Table 6 / FIG. 1",greatest reduction in hot flashes at each weekly time point
same,"reduction in all (mild, moderate and severe) hot flashes compared with other groups","10 mg group vs placebo and 25, 50, 100 mg, Table 7",greatest reduction in hot flashes at each weekly time point
same,composite score reduction compared with other groups,"10 mg group vs placebo and 25, 50, 100 mg, Table 9 / FIG. 4",greatest composite score reduction at each weekly timepoint
same,"Weekly Mean Frequency of Mild, Moderate and Severe Hot Flash Numbers","10 mg group, Baseline, ITT",66.0 (13.89)
same,Weekly Mean Frequency of Moderate and Severe Hot Flash Numbers,"10 mg group, Baseline, ITT",63.1 (14.23)
same,Mean Severity Scores by Week,"10 mg group, Baseline, ITT, mild=1, moderate=2, severe=3",2.37 (0.347)
same,Composite Scores by Week,"10 mg group, Baseline, ITT, frequency x severity",156.45
same,Composite Scores by Week,"25 mg daily PO, Week 1, ITT",142.71
same,Mean Severity Scores by Week,"25 mg daily PO, Week 1, ITT",2.12 (0.392)
same,"Weekly Mean Frequency of Mild, Moderate and Severe Hot Flash Numbers","25 mg daily PO, Week 1, ITT",64.4 (48.88)
same,Weekly Mean Frequency of Moderate and Severe Hot Flash Numbers,"25 mg daily PO, Week 1, ITT",57.7 (50.49)
same,Composite Scores by Week,"25 mg daily PO, Week 2, ITT",102.82
same,Mean Severity Scores by Week,"25 mg daily PO, Week 2, ITT",2.09 (0.447)
same,"Weekly Mean Frequency of Mild, Moderate and Severe Hot Flash Numbers","25 mg daily PO, Week 2, ITT",48.0 (48.80)
same,Weekly Mean Frequency of Moderate and Severe Hot Flash Numbers,"25 mg daily PO, Week 2, ITT",42.3 (49.73)
same,Composite Scores by Week,"25 mg daily PO, Week 3, ITT",102.59
same,Mean Severity Scores by Week,"25 mg daily PO, Week 3, ITT",2.14 (0.408)
same,"Weekly Mean Frequency of Mild, Moderate and Severe Hot Flash Numbers","25 mg daily PO, Week 3, ITT",46.6 (56.27)
same,Weekly Mean Frequency of Moderate and Severe Hot Flash Numbers,"25 mg daily PO, Week 3, ITT",43.3 (57.15)
same,Composite Scores by Week,"25 mg daily PO, Week 4, ITT",89.59
same,Mean Severity Scores by Week,"25 mg daily PO, Week 4, ITT",2.06 (0.404)
same,"Weekly Mean Frequency of Mild, Moderate and Severe Hot Flash Numbers","25 mg daily PO, Week 4, ITT",42.4 (53.18)
same,Weekly Mean Frequency of Moderate and Severe Hot Flash Numbers,"25 mg daily PO, Week 4, ITT",37.4 (54.76)
same,"Weekly Mean Frequency of Mild, Moderate and Severe Hot Flash Numbers","25 mg group, Baseline, ITT",75.8 (46.46)
same,Weekly Mean Frequency of Moderate and Severe Hot Flash Numbers,"25 mg group, Baseline, ITT",65.9 (44.30)
same,Mean Severity Scores by Week,"25 mg group, Baseline, ITT, mild=1, moderate=2, severe=3",2.26 (0.348)
same,Composite Scores by Week,"25 mg group, Baseline, ITT, frequency x severity",165.47
same,Composite Scores by Week,"50 mg daily PO, Week 1, ITT",104.35
same,Mean Severity Scores by Week,"50 mg daily PO, Week 1, ITT",1.92 (0.402)
same,"Weekly Mean Frequency of Mild, Moderate and Severe Hot Flash Numbers","50 mg daily PO, Week 1, ITT",54.0 (27.15)
same,Weekly Mean Frequency of Moderate and Severe Hot Flash Numbers,"50 mg daily PO, Week 1, ITT",41.7 (23.79)
same,Composite Scores by Week,"50 mg daily PO, Week 2, ITT",87.78
same,Mean Severity Scores by Week,"50 mg daily PO, Week 2, ITT",1.88 (0.535)
same,"Weekly Mean Frequency of Mild, Moderate and Severe Hot Flash Numbers","50 mg daily PO, Week 2, ITT",45.8 (25.16)
same,Weekly Mean Frequency of Moderate and Severe Hot Flash Numbers,"50 mg daily PO, Week 2, ITT",32.8 (25.52)
same,Composite Scores by Week,"50 mg daily PO, Week 3, ITT",77.67
same,Mean Severity Scores by Week,"50 mg daily PO, Week 3, ITT",1.86 (0.544)
same,"Weekly Mean Frequency of Mild, Moderate and Severe Hot Flash Numbers","50 mg daily PO, Week 3, ITT",40.5 (22.37)
same,Weekly Mean Frequency of Moderate and Severe Hot Flash Numbers,"50 mg daily PO, Week 3, ITT",29.6 (25.09)
same,Composite Scores by Week,"50 mg daily PO, Week 4, ITT",75.06
same,Mean Severity Scores by Week,"50 mg daily PO, Week 4, ITT",1.83 (0.568)
same,"Weekly Mean Frequency of Mild, Moderate and Severe Hot Flash Numbers","50 mg daily PO, Week 4, ITT",37.9 (23.45)
same,Weekly Mean Frequency of Moderate and Severe Hot Flash Numbers,"50 mg daily PO, Week 4, ITT",29.4 (26.53)
same,"Weekly Mean Frequency of Mild, Moderate and Severe Hot Flash Numbers","50 mg group, Baseline, ITT",76.0 (36.96)
same,Weekly Mean Frequency of Moderate and Severe Hot Flash Numbers,"50 mg group, Baseline, ITT",71.9 (36.92)
same,Mean Severity Scores by Week,"50 mg group, Baseline, ITT, mild=1, moderate=2, severe=3",2.14 (0.313)
same,Composite Scores by Week,"50 mg group, Baseline, ITT, frequency x severity",162.19
same,Composite Scores by Week,"100 mg daily PO, Week 1, ITT",104.35
same,Mean Severity Scores by Week,"100 mg daily PO, Week 1, ITT",2.04 (0.334)
same,"Weekly Mean Frequency of Mild, Moderate and Severe Hot Flash Numbers","100 mg daily PO, Week 1, ITT",48.6 (23.32)
same,Weekly Mean Frequency of Moderate and Severe Hot Flash Numbers,"100 mg daily PO, Week 1, ITT",41.9 (24.23)
same,Composite Scores by Week,"100 mg daily PO, Week 2, ITT",87.18
same,Mean Severity Scores by Week,"100 mg daily PO, Week 2, ITT",2.01 (0.406)
same,"Weekly Mean Frequency of Mild, Moderate and Severe Hot Flash Numbers","100 mg daily PO, Week 2, ITT",41.6 (27.37)
same,Weekly Mean Frequency of Moderate and Severe Hot Flash Numbers,"100 mg daily PO, Week 2, ITT",35.6 (28.06)
same,Composite Scores by Week,"100 mg daily PO, Week 3, ITT",59.75
same,Mean Severity Scores by Week,"100 mg daily PO, Week 3, ITT",1.88 (0.473)
same,"Weekly Mean Frequency of Mild, Moderate and Severe Hot Flash Numbers","100 mg daily PO, Week 3, ITT",29.4 (23.91)
same,Weekly Mean Frequency of Moderate and Severe Hot Flash Numbers,"100 mg daily PO, Week 3, ITT",24.5 (24.06)
same,Composite Scores by Week,"100 mg daily PO, Week 4, ITT",43.67
same,Mean Severity Scores by Week,"100 mg daily PO, Week 4, ITT",1.89 (0.484)
same,"Weekly Mean Frequency of Mild, Moderate and Severe Hot Flash Numbers","100 mg daily PO, Week 4, ITT",23.1 (19.45)
same,Weekly Mean Frequency of Moderate and Severe Hot Flash Numbers,"100 mg daily PO, Week 4, ITT",18.6 (19.16)
same,"Weekly Mean Frequency of Mild, Moderate and Severe Hot Flash Numbers","100 mg group, Baseline, ITT",63.6 (13.23)
same,Weekly Mean Frequency of Moderate and Severe Hot Flash Numbers,"100 mg group, Baseline, ITT",58.5 (12.67)
same,Mean Severity Scores by Week,"100 mg group, Baseline, ITT, mild=1, moderate=2, severe=3",2.21 (0.330)
same,Composite Scores by Week,"100 mg group, Baseline, ITT, frequency x severity",140.35
